Source: PubChem BioAssay AID1963986 (Molecular Pharmacology Branch, DTP, NCI, 2024)
pIC50: −log10 of the molar value.

Test system: 171881-019-R-J1-PDC tumor spheroid viability
Experiment: Anticancer human tumor 171881-019-R-J1-PDC patient-derived invasive breast carcinoma cell line growth inhibition [PI3K]
Details: spheroids with HUVEC and MSC; for pIC50: curve of first compound; for viability, T/C: stronger effect = lower value
How it was run: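 High-throughput combination screen: PI3K inhibitors crossed with targeted small molecules on complex spheroids of tumor cells, HUVEC and MSCs at 37 degrees C, 5% CO2. Top concentration was at or near clinical Cmax (otherwise 10 microM), with half-log decrements.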

[1] = second compound 0.0316 µM, first compound 0.0316 µM
[2] = second compound 0.0316 µM, first compound 0.1 µM
[3] = second compound 0.1 µM, first compound 0.0316 µM
[4] = second compound 0.1 µM, first compound 0.1 µM
[5] = second compound 0.316 µM, first compound 0.0316 µM
[6] = second compound 0.316 µM, first compound 0.1 µM
[7] = second compound 1 µM, first compound 0.0316 µM
[8] = second compound 1 µM, first compound 0.1 µM
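Further: spheroids exposed to compound for 7 days before viability read.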
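Wherever viability, T/C is given: 100% = DMSO vehicle-treated spheroids.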

CNC(=O)c1ccc(N2C(=S)N(c3ccc(C#N)c(C(F)(F)F)c3)C(=O)C2(C)C)cc1F + CC(Nc1ncnc2nc[nH]c12)c1cc2cccc(Cl)c2c(=O)n1-c1ccccc1
pIC50 (second compound 0.0316 µM): < 5.00
pIC50 (second compound 0.1 µM): < 5.00
pIC50 (second compound 0.316 µM): < 5.00
pIC50 (second compound 1 µM): < 5.00
pIC50 (second compound 3.16 µM): < 5.00
pIC50 (second compound 10 µM): 5.31
viability, T/C [1]: 91.6%
viability, T/C [2]: 78.6%
viability, T/C (second compound 0.0316 µM, first compound 0.316 µM): 80.1%
viability, T/C (second compound 0.0316 µM, first compound 1 µM): 86.4%
viability, T/C (second compound 0.0316 µM, first compound 3.16 µM): 86.1%
viability, T/C (second compound 0.0316 µM, first compound 10 µM): 71.2%
viability, T/C [3]: 88.8%
viability, T/C [4]: 85.9%
viability, T/C (second compound 0.1 µM, first compound 0.316 µM): 78.5%
viability, T/C (second compound 0.1 µM, first compound 1 µM): 85.6%
viability, T/C (second compound 0.1 µM, first compound 3.16 µM): 83.3%
viability, T/C (second compound 0.1 µM, first compound 10 µM): 69.8%
viability, T/C [5]: 92.1%
viability, T/C [6]: 93.3%
viability, T/C (second compound 0.316 µM, first compound 0.316 µM): 85.3%
viability, T/C (second compound 0.316 µM, first compound 1 µM): 92.4%
viability, T/C (second compound 0.316 µM, first compound 3.16 µM): 77%
viability, T/C (second compound 0.316 µM, first compound 10 µM): 69.9%
viability, T/C [7]: 89.9%
viability, T/C [8]: 100%
viability, T/C (second compound 1 µM, first compound 0.316 µM): 85.2%
viability, T/C (second compound 1 µM, first compound 1 µM): 86.9%
viability, T/C (second compound 1 µM, first compound 3.16 µM): 93.1%
viability, T/C (second compound 1 µM, first compound 10 µM): 70.7%
viability, T/C (second compound 3.16 µM, first compound 0.0316 µM): 87.2%
viability, T/C (second compound 3.16 µM, first compound 0.1 µM): 85.9%
viability, T/C (second compound 3.16 µM, first compound 0.316 µM): 83.7%
viability, T/C (second compound 3.16 µM, first compound 1 µM): 80.1%
viability, T/C (second compound 3.16 µM, first compound 3.16 µM): 80.9%
viability, T/C (second compound 3.16 µM, first compound 10 µM): 64.5%
viability, T/C (second compound 10 µM, first compound 0.0316 µM): 61.4%
viability, T/C (second compound 10 µM, first compound 0.1 µM): 58.2%
viability, T/C (second compound 10 µM, first compound 0.316 µM): 60.4%
viability, T/C (second compound 10 µM, first compound 1 µM): 57.2%
viability, T/C (second compound 10 µM, first compound 3.16 µM): 54%
viability, T/C (second compound 10 µM, first compound 10 µM): 43.7%

Cn1ncnc1[C@H]1c2n[nH]c(=O)c3cc(F)cc(c23)N[C@@H]1c1ccc(F)cc1 + COc1c(OCCCN2CCOCC2)ccc2c3n(c(=NC(=O)c4cnc(N)nc4)nc12)CCN3
pIC50 (second compound 0.00316 µM): < 7.00
pIC50 (second compound 0.01 µM): > 9.50
pIC50 (second compound 0.0316 µM): > 9.50
pIC50 (second compound 0.1 µM): > 9.50
pIC50 (second compound 0.316 µM): > 9.50
pIC50 (second compound 1 µM): > 9.50
viability, T/C (second compound 0.00316 µM, first compound 0.000316 µM): 65.8%
viability, T/C (second compound 0.00316 µM, first compound 0.001 µM): 69.5%
viability, T/C (second compound 0.00316 µM, first compound 0.00316 µM): 62.6%
viability, T/C (second compound 0.00316 µM, first compound 0.01 µM): 75%
viability, T/C (second compound 0.00316 µM, first compound 0.0316 µM): 59.7%
viability, T/C (second compound 0.00316 µM, first compound 0.1 µM): 53.5%
viability, T/C (second compound 0.01 µM, first compound 0.000316 µM): 43.3%
viability, T/C (second compound 0.01 µM, first compound 0.001 µM): 47.2%
viability, T/C (second compound 0.01 µM, first compound 0.00316 µM): 43.6%
viability, T/C (second compound 0.01 µM, first compound 0.01 µM): 49.6%
viability, T/C (second compound 0.01 µM, first compound 0.0316 µM): 41.7%
viability, T/C (second compound 0.01 µM, first compound 0.1 µM): 42%
viability, T/C (second compound 0.0316 µM, first compound 0.000316 µM): 24.2%
viability, T/C (second compound 0.0316 µM, first compound 0.001 µM): 24.2%
viability, T/C (second compound 0.0316 µM, first compound 0.00316 µM): 21.8%
viability, T/C (second compound 0.0316 µM, first compound 0.01 µM): 24.2%
viability, T/C [1]: 23.6%
viability, T/C [2]: 20.2%
viability, T/C (second compound 0.1 µM, first compound 0.000316 µM): 7.63%
viability, T/C (second compound 0.1 µM, first compound 0.001 µM): 7.42%
viability, T/C (second compound 0.1 µM, first compound 0.00316 µM): 8.65%
viability, T/C (second compound 0.1 µM, first compound 0.01 µM): 7.87%
viability, T/C [3]: 7.14%
viability, T/C [4]: 6.55%
viability, T/C (second compound 0.316 µM, first compound 0.000316 µM): 2.06%
viability, T/C (second compound 0.316 µM, first compound 0.001 µM): 1.56%
viability, T/C (second compound 0.316 µM, first compound 0.00316 µM): 1.67%
viability, T/C (second compound 0.316 µM, first compound 0.01 µM): 1.78%
viability, T/C [5]: 2.25%
viability, T/C [6]: 1.69%
viability, T/C (second compound 1 µM, first compound 0.000316 µM): 1.89%
viability, T/C (second compound 1 µM, first compound 0.001 µM): 1.19%
viability, T/C (second compound 1 µM, first compound 0.00316 µM): 1.15%
viability, T/C (second compound 1 µM, first compound 0.01 µM): 1.21%
viability, T/C [7]: 1.01%
viability, T/C [8]: 0.97%
